According to US20060258617A1, “DRUG DELIVERY TO THE BACK OF THE EYE” (Allergan, Inc., priority 2004, published 2006):

Assay: Osmolality of cyclodextrins as a function of concentration in pure water
Assay type: physicochemical
Settings: ambient room temperature, various concentrations (FIG. 5)
Protocol: The osmolality of four cyclodextrins was determined as a function of concentration in pure water by the following procedure. Various amounts of cyclodextrins were dissolved in water at ambient room temperature.

Substance: sulfobutylether-β-cyclodextrin [NaSBECD]
- osmolality: significantly higher osmolality than the other β-cyclodextrins tested
